Measurements as given in patent US20220323406A1, “METHODS AND COMPOSITIONS FOR DIFFERENTIATING STEM CELLS” (Massachusetts Institute of Technology, priority 2019, published 2022).
Where a name gives a salt, the structure may show the parent alone.

Legend:
Conditions in all cases: primary screen
[1] = system: ENR+CD organoids (ISC to Paneth cell differentiation); test: Primary screen: CCh-stimulated lysozyme secretion LYZ.S, 2.5-D 384-well ENR+CD organoid differentiation; assay type: cell-based, mouse
Source text: (§1) High-throughput screening.

[2] = system: ENR+CD organoids (ISC to Paneth cell differentiation); test: Primary screen: basal (non-stimulated) lysozyme secretion LYZ.NS, 2.5-D 384-well ENR+CD organoid differentiation; assay type: cell-based, mouse
Source text: as §1

ENR+CD organoids = test: Primary screen: ATP (CellTiter-Glo 3D, CTG) cell number/viability, 2.5-D 384-well ENR+CD organoids;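 note: compounds given at plating and again on day 3 over a 6-day differentiation from ENR+CV stem-cell-enriched precursors, ATP measured on day 6, plate median as control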

Structure (SMILES) | Dose.FC.LYZ.S ([1]; dose 0.08 uM) | Dose.FC.LYZ.S ([1]; dose 0.40 uM) | Dose.FC.LYZ.S ([1]; dose 2.00 uM) | Dose.FC.LYZ.S ([1]; dose 10.00 uM) | Dose.FC.LYZ.NS ([2]; dose 0.08 uM) | Z.LYZ.NS (standard z score) ([2]; dose 0.08 uM) | Dose.FC.LYZ.NS ([2]; dose 0.40 uM) | Z.LYZ.NS (standard z score) ([2]; dose 0.40 uM) | Dose.FC.LYZ.NS ([2]; dose 2.00 uM) | Z.LYZ.NS (standard z score) ([2]; dose 2.00 uM) | Dose.FC.LYZ.NS ([2]; dose 10.00 uM) | Z.LYZ.NS (standard z score) ([2]; dose 10.00 uM) | Dose.FC.CTG (ENR+CD organoids; dose 0.08 uM) | Dose.FC.CTG (ENR+CD organoids; dose 0.40 uM) | Dose.FC.CTG (ENR+CD organoids; dose 2.00 uM) | Dose.FC.CTG (ENR+CD organoids; dose 10.00 uM) | Z.CTG (standard z score) (ENR+CD organoids; dose 0.40 uM) | Z.CTG (standard z score) (ENR+CD organoids; dose 2.00 uM) | Z.CTG (standard z score) (ENR+CD organoids; dose 10.00 uM)
CC[C@H](NC(=O)[C@H](C)NC)C(=O)N1C[C@@H](O)C[C@H]1Cc1c(-c2[nH]c3cc(F)ccc3c2C[C@@H]2C[C@H](O)CN2C(=O)[C@H](CC)NC(=O)[C@H](C)NC)[nH]c2cc(F)ccc12 [Birinapant] | 0.075 log2 fold change | 0.103 log2 fold change | 0.011 log2 fold change | −0.080 log2 fold change | 0.032 log2 fold change | 0.281 | −0.012 log2 fold change | −0.102 | 0.036 log2 fold change | 0.317 | −0.029 log2 fold change | −0.256 | −0.257 log2 fold change | 0.095 log2 fold change | 0.227 log2 fold change | 0.123 log2 fold change | – | – | –
CC(C)NCC(O)COc1ccc(COCCOC(C)C)cc1 (stereo not shown) [Bisoprolol fumarate] | 0.086 log2 fold change | 0.129 log2 fold change | 0.074 log2 fold change | 0.015 log2 fold change | 0.085 log2 fold change | 0.739 | 0.075 log2 fold change | 0.649 | 0.075 log2 fold change | 0.656 | 0.003 log2 fold change | 0.027 | −0.104 log2 fold change | −0.057 log2 fold change | −0.020 log2 fold change | 0.058 log2 fold change | – | – | –
COc1ccccc1Oc1c(NS(=O)(=O)c2ccc(C(C)(C)C)cc2)nc(-c2ncccn2)nc1OCCO [Bosentan Hydrate] | 0.145 log2 fold change | 0.100 log2 fold change | 0.014 log2 fold change | 0.045 log2 fold change | 0.090 log2 fold change | 0.785 | 0.068 log2 fold change | 0.589 | 0.039 log2 fold change | 0.337 | 0.058 log2 fold change | 0.508 | 0.204 log2 fold change | 0.207 log2 fold change | 0.121 log2 fold change | 0.085 log2 fold change | – | – | –
CCN[C@H]1CN(CCCOC)S(=O)(=O)c2sc(S(N)(=O)=O)cc21 [Brinzolamide] | 0.030 log2 fold change | 0.052 log2 fold change | 0.064 log2 fold change | 0.083 log2 fold change | 0.133 log2 fold change | 1.159 | 0.084 log2 fold change | 0.733 | 0.059 log2 fold change | 0.511 | 0.060 log2 fold change | 0.521 | −0.007 log2 fold change | −0.068 log2 fold change | 0.118 log2 fold change | 0.078 log2 fold change | −0.163 | 0.282 | 0.186
